Assay results taken from the supplement of paper PMC11451515.

System: SEM cells
Test: cell viability relative to DMSO control; higher = less cytotoxic
Conditions: 48 h
Procedure, shortened: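 Three leukemia lines were tested: NOMO1 and SEM at 500 cells/well and P12-Ichikawa at 1000 cells/well. Each was adapted for at least four passages in each medium and seeded in 5 μl in 1536-well plates, and library compounds in DMSO were pin-dosed from 47 μM to 0.79 nM in 11 threefold steps. After 48 h at 37°C, CellTiter-Glo One luminescence was read. Viability is a percentage relative to DMSO wells on each plate, with cell-free wells as background.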

[1] = HPLM + 10% dialyzed FBS, 0.000781 µM
[2] = HPLM + 10% dialyzed FBS, 0.00234 µM
[3] = HPLM + 10% dialyzed FBS, 0.00702 µM
[4] = HPLM + 10% dialyzed FBS, 0.0211 µM
[5] = HPLM + 10% dialyzed FBS, 0.0632 µM
[6] = HPLM + 10% dialyzed FBS, 0.19 µM
[7] = HPLM + 10% dialyzed FBS, 0.569 µM
[8] = HPLM + 10% dialyzed FBS, 1.71 µM
[9] = HPLM + 10% dialyzed FBS, 5.12 µM
[10] = HPLM + 10% dialyzed FBS, 15.4 µM
[11] = HPLM + 10% dialyzed FBS, 46.1 µM
[12] = RPMI 5 mM glucose + 10% FBS, 0.000781 µM
[13] = RPMI 5 mM glucose + 10% FBS, 0.00234 µM
[14] = RPMI 5 mM glucose + 10% FBS, 0.00702 µM
[15] = RPMI 5 mM glucose + 10% FBS, 0.0211 µM
[16] = RPMI 5 mM glucose + 10% FBS, 0.0632 µM
[17] = RPMI 5 mM glucose + 10% FBS, 0.19 µM
[18] = RPMI 5 mM glucose + 10% FBS, 0.569 µM
[19] = RPMI 5 mM glucose + 10% FBS, 1.71 µM
[20] = RPMI 5 mM glucose + 10% FBS, 5.12 µM
[21] = RPMI 5 mM glucose + 10% FBS, 15.4 µM
[22] = RPMI 5 mM glucose + 10% FBS, 46.1 µM
[23] = RPMI 5 mM glucose + 10% dialyzed FBS, 0.000781 µM
[24] = RPMI 5 mM glucose + 10% dialyzed FBS, 0.00234 µM
[25] = RPMI 5 mM glucose + 10% dialyzed FBS, 0.00702 µM
[26] = RPMI 5 mM glucose + 10% dialyzed FBS, 0.0211 µM
[27] = RPMI 5 mM glucose + 10% dialyzed FBS, 0.0632 µM
[28] = RPMI 5 mM glucose + 10% dialyzed FBS, 0.19 µM
[29] = RPMI 5 mM glucose + 10% dialyzed FBS, 0.569 µM
[30] = RPMI 5 mM glucose + 10% dialyzed FBS, 1.71 µM
[31] = RPMI 5 mM glucose + 10% dialyzed FBS, 5.12 µM
[32] = RPMI 5 mM glucose + 10% dialyzed FBS, 15.4 µM
[33] = RPMI 5 mM glucose + 10% dialyzed FBS, 46.1 µM

Row | SMILES | cell viability [1] [%] | cell viability [2] [%] | cell viability [3] [%] | cell viability [4] [%] | cell viability [5] [%] | cell viability [6] [%] | cell viability [7] [%] | cell viability [8] [%] | cell viability [9] [%] | cell viability [10] [%] | cell viability [11] [%] | cell viability [12] [%] | cell viability [13] [%] | cell viability [14] [%] | cell viability [15] [%] | cell viability [16] [%] | cell viability [17] [%] | cell viability [18] [%] | cell viability [19] [%] | cell viability [20] [%] | cell viability [21] [%] | cell viability [22] [%] | cell viability [23] [%] | cell viability [24] [%] | cell viability [25] [%] | cell viability [26] [%] | cell viability [27] [%] | cell viability [28] [%] | cell viability [29] [%] | cell viability [30] [%] | cell viability [31] [%] | cell viability [32] [%] | cell viability [33] [%]
1 | CC1CNc2c(cccc2[S+](=O)([O-])N[C@@H](CCCNC(=N)N)C(=O)N2CC[C@@H](C)C[C@@H]2C(=O)O)C1 (stereo partly specified) | 88 | 94.7 | 102 | 111 | 98.2 | 117 | 117 | 124 | 106 | 128 | 95.6 | 85.6 | 90 | 96.4 | 108 | 75.7 | 103 | 113 | 97.1 | 101 | 107 | 103 | 70 | 90.1 | 101 | 97 | 99.1 | 103 | 107 | 106 | 110 | 84.7 | 108
2 | C[C@H]1COC2=C3N1\C=C(C(O)=O)/C(=O)C3=CC(=C2N4CCN(C)CC4)F | 102 | 117 | 117 | 108 | 106 | 110 | 92.9 | 68.7 | 68.2 | 65.4 | 52.7 | 105 | 115 | 102 | 115 | 90.6 | 81.4 | 94.7 | 73.4 | 63.6 | 58.6 | 31.9 | 90 | 109 | 112 | 99.1 | 90.2 | 96.4 | 88.7 | 64.1 | 76.9 | 70.4 | 69.4
